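Method: 48-hour compound exposure of cells in 96-well plates, five concentrations, linear interpolation of endpoints. GI50 marks 50% less growth. TGI: concentration producing complete growth inhibition.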
Key:
Assay in all cases: NCI tumour cell line growth inhibition, 48 h
SR leukemia = test system: SR leukemia
SK-MEL-2 melanoma = test system: SK-MEL-2 melanoma
SF-295 CNS = test system: SF-295 CNS
CAKI-1 renal = test system: CAKI-1 renal
786-0 renal = test system: 786-0 renal
LOX IMVI melanoma = test system: LOX IMVI melanoma
SW-620 colon = test system: SW-620 colon
SNB-75 CNS = test system: SNB-75 CNS
CCRF-CEM leukemia = test system: CCRF-CEM leukemia
HT29 colon = test system: HT29 colon

| Structure (SMILES) | GI50 (SR leukemia) | TGI (SR leukemia) | GI50 (SK-MEL-2 melanoma) | TGI (SK-MEL-2 melanoma) | GI50 (SF-295 CNS) | TGI (SF-295 CNS) | GI50 (CAKI-1 renal) | TGI (CAKI-1 renal) | GI50 (786-0 renal) | TGI (786-0 renal) | GI50 (LOX IMVI melanoma) | TGI (LOX IMVI melanoma) | GI50 (SW-620 colon) | TGI (SW-620 colon) | GI50 (SNB-75 CNS) | TGI (SNB-75 CNS) | GI50 (CCRF-CEM leukemia) | TGI (CCRF-CEM leukemia) | GI50 (HT29 colon) | TGI (HT29 colon) |
| --- | --- | --- | --- | --- | --- | --- | --- | --- | --- | --- | --- | --- | --- | --- | --- | --- | --- | --- | --- | --- |
| COc1ccc(C(O)c2cc3c(N)c(C(=O)Nc4cccc(Br)c4C)sc3nc2C)cc1 (stereo not given) | 0.125 µM | > 33.3 µM | 1.17 µM | > 33.3 µM | 0.133 µM | 6.14 µM | 0.151 µM | 18.1 µM | 0.254 µM | > 33.3 µM | 0.187 µM | 12.4 µM | 0.124 µM | > 33.3 µM | 0.0816 µM | 11.2 µM | 0.139 µM | > 33.3 µM | 0.12 µM | 5.77 µM |
| CC1(C)C2CCC13C(=O)C1OC3(C2)C2C(=O)c3c(ccc4c3ccc3ccccc34)C(=O)C12 (stereo not given) | 1.86 µM | 51 µM | > 100 µM | > 100 µM | 13.2 µM | 92.6 µM | 20 µM | 80.1 µM | > 36.3 µM | > 70.3 µM | 50.9 µM | > 100 µM | 56.5 µM | > 100 µM | > 65.8 µM | > 100 µM | 21.5 µM | > 62.9 µM | > 64.6 µM | > 100 µM |
| COc1cc2cc(Oc3cccc(NC(=O)Nc4cc(C(F)(F)F)cc(C(F)(F)F)c4)c3)c(C)nc2cc1OC | 1.62 µM | 5.97 µM | 1.82 µM | 4.24 µM | 0.481 µM | 1.94 µM | 1.41 µM | 5.1 µM | 1.61 µM | 3.09 µM | 1.44 µM | 2.96 µM | 1.94 µM | 5.71 µM | 1.73 µM | 5.05 µM | 0.641 µM | 3.47 µM | 1.52 µM | 3.46 µM |
| COc1cc2c(c(OC)c1OC)C(=O)NCCC2 |  | > 100 µM |  | > 100 µM |  | > 100 µM |  | > 100 µM |  | > 100 µM |  | > 100 µM |  | > 100 µM |  | > 100 µM |  | > 100 µM |  | > 100 µM |
| CC(=O)Oc1cc2cnc3c4cc(OC(C)=O)c(OC(C)=O)cc4ccc3c2cc1OC(C)=O | 0.629 µM | > 100 µM | 4.5 µM | 79.9 µM | 3.36 µM | > 100 µM | 0.611 µM | > 100 µM | 2.99 µM | 16.3 µM | 1.23 µM | > 100 µM | 0.952 µM | > 100 µM | 0.25 µM | 7.7 µM | 0.608 µM | > 100 µM | 4.18 µM | > 100 µM |
| Cc1ccc(OC(=O)N2C/C(=C\c3ccccc3)C(=O)/C(=C/c3ccccc3)C2)cc1 |  | 13.2 µM |  | > 100 µM |  | 47.6 µM |  | > 100 µM |  | 35.9 µM |  | 9.71 µM |  | 35.6 µM |  | 55.4 µM |  | 16.3 µM |  | 35.6 µM |
| CC[C@H]1OC(=O)[C@H](C)[C@@H](O[C@H]2C[C@@](C)(OC)[C@@H](O)[C@H](C)O2)[C@H](C)[C@@H](O[C@@H]2O[C@H](C)C[C@H](N(C)C)[C@H]2O)[C@](C)(OC)C/C(C)=C2/O[C@@]1(C)C=C2C | 1.97 µM | 5.09 µM | 1.85 µM | 3.73 µM | 1.85 µM | 3.35 µM | 1.51 µM | 2.93 µM | 1.64 µM | 3.16 µM | 1.61 µM | 3.08 µM | 1.78 µM | 3.42 µM | 1.27 µM | 2.64 µM | 2.22 µM | 5.62 µM | 1.83 µM | 4.14 µM |
| COc1ccc(/C=N/NS(=O)(=O)c2ccccc2)cc1 |  | > 100 µM |  | > 100 µM |  | > 100 µM |  | > 100 µM |  | > 100 µM |  | > 100 µM |  | > 100 µM |  | > 100 µM |  | > 100 µM |  | > 100 µM |
| CN1CC[C@H](c2c(O)cc(O)c3c(=O)cc(-c4ccccc4Cl)oc23)[C@H](O)C1 | 0.0045 µM | > 2.67 µM | 0.0668 µM | 0.26 µM | 0.21 µM | 0.625 µM |  | > 10 µM | 0.0717 µM | > 10 µM | 0.00602 µM | > 10 µM | 0.0572 µM | > 10 µM | 0.053 µM | 0.155 µM |  | > 10 µM |  | > 10 µM |
| O=c1cccc(Cl)[nH]1 |  | > 100 µM |  | > 100 µM |  | > 100 µM |  | > 100 µM |  | > 100 µM |  | > 100 µM |  | > 100 µM |  | > 100 µM |  | > 100 µM |  | > 100 µM |
| C=C1C[C@@H]2O[C@H]3[C@H]4[C@@H](CC[C@@](C)(OC(=O)CCC)[C@H]42)[C@@H](C)C(=O)O[C@@]3(C)CC[C@H]1OO | 5.48 µM | 18.4 µM | 52.2 µM | > 100 µM | 17.8 µM | 36.1 µM | 4.8 µM | 19.1 µM | > 100 µM | > 100 µM | 15.4 µM | 28.7 µM | 19.6 µM | 37.1 µM | 20.5 µM | 44.6 µM | 4.81 µM | 14.8 µM | 16.9 µM | 33.6 µM |
| COc1ccc(-c2c(N)noc2-c2cc(OC)c3c(c2)OCCO3)cc1 | < 0.01 µM | > 52.4 µM | < 0.01 µM | 67.5 µM | < 0.01 µM | 22.3 µM | < 0.01 µM | 34.1 µM | < 0.012 µM |  | 0.0451 µM | 24 µM | < 0.01 µM | > 100 µM | < 0.01 µM | 39 µM | 0.0166 µM | 1.74 µM | < 0.01 µM | 0.823 µM |
| CC1(C)N=C(N)N=C(N)N1c1cccc(CCc2ccccc2)c1 | 0.282 µM | > 64.3 µM | 1.94 µM | > 67.5 µM | 0.604 µM | > 100 µM | 40.2 µM | > 100 µM | 0.799 µM | > 100 µM | 0.269 µM | > 100 µM | 0.156 µM | > 100 µM | 0.707 µM | 46.4 µM | 0.566 µM | > 100 µM | 0.135 µM | 18.6 µM |
| COc1cc(NC2CCCCC2O)c2nc(-c3ccc(Cl)cc3)ccc2c1 (stereo not given) | 3.26 µM | 32.8 µM | 12.5 µM | 59.3 µM | 2.8 µM | 12.1 µM | 4.73 µM | 63.2 µM | 5.23 µM | 18.6 µM | 5.95 µM | 30.9 µM | 7.52 µM | 46.7 µM | 5.04 µM | 59.1 µM | 4.34 µM | 68.5 µM | 4.29 µM | 23.8 µM |
| COc1ccc(/C=C/C(=O)c2cc3c(N)c(C(=O)Nc4ccc(OC)cc4)sc3nc2C)cc1 | 0.889 µM | > 50 µM | 0.359 µM | > 50 µM | 0.0645 µM |  | 0.593 µM | > 50 µM | 0.353 µM | > 50 µM | 1.06 µM | 11.3 µM | 0.543 µM | > 50 µM | 0.344 µM | 2.21 µM | 0.567 µM | > 50 µM | 0.404 µM | > 28.4 µM |

— PubChem BioAssay (NCI)
